Residues, ends and D or L forms follow the SMILES beside them.
B1: PCSK2 30-38 peptide (FTNHFLVEL) (peptide)
peptide: FTNHFLVEL
B2: insulin gene enhancer protein ISL1 276-284 peptide (peptide, UniProt P61371 276-284, looked up)
peptide: GLQANPVEV
notes: range 276-284; Synthetic peptide
B3: KCNK16 129-137 peptide (peptide, UniProt Q96T55 129-137, looked up)
peptide: ALLGIPLNV
notes: range 129-137; Synthetic peptide

How the values were obtained:
[1] = test system: circulating CD8^+ T cells; experiment: ex-vivo combinatorial HLA-A2 MMr assay on PBMCs; format: cell-based, human; conditions: for cognate naïve CD8^+ T-cell repertoire (validation of candidate epitope): frequency 1-50/10^6 CD8^+ T cells, clustered MMr staining, ≥50% of individuals; for median frequency in peripheral blood: T1D patients; for frequency of MMr^+ CD8^+ T cells, in words: HLA-A2^+ recent-onset T1D and healthy subjects
[2] = test system: islet-infiltrating CD8+ T cells of NOD mice; experiment: IFN-γ recall assay of islet-infiltrating cells against peptide-pulsed K^d+ L cells; format: cell-based; conditions: for positive mice (number/tested) / positive mice, percentage: 12-16-week-old NOD females, positive = IFN-γ^+CD8^+ cells >1.8%; for median percentage of IFN-γ^+CD8^+ cells / positive range of percentage of IFN-γ^+CD8^+ cells: 6 h peptide recall with brefeldin-A, intracellular IFN-γ staining
Text: Peptides predicted to be restricted by the murine MHC Class I K^d molecule were identified using prediction algorithms and scanning of the whole murine protein sequence. Peptides were first tested in pools, and positive pools subsequently deconvoluted for reactivity against individual peptides. To this end, islets were isolated from 12-16-week-old NOD mice by collagenase digestion and put in culture with recombinant human IL-2 (Proleukin, Novartis) for 5 days as described (Brezar et al, Eur J Immunol 2012). Cells exiting the islets were subsequently collected and subjected to recall assays against K^d+ L antigen-presenting cells pulsed with the indicated peptides for 6 h in the presence of brefeldin-A, followed by intracellular staining for IFN-γ. The TUM, Ins B15-23 and IGRP 206-214 peptides were included as negative control and positive controls, respectively.
We performed experiments in 12-16-week-old NOD females by analyzing the reactivity of islet-infiltrating CD8^+ T cells to peptides derived from murine Ucn3 and Pcsk2 and predicted to be restricted by the murine MHC molecule K^d. A positive response was defined as a percentage of IFN-γ^+CD8^+ cells >1.8%, which was the median response observed for the negative control TUM peptide.

[3] = test system: pancreas-infiltrating cells of HLA-A2^+ T1D patients; experiment: in-situ HLA-A2 MMr staining on pancreas sections; format: cell-based, human; conditions: 2 HLA-A2^+ T1D cases, nPOD tissue sections
Method: In-situ staining was performed as described (Culina et al., 2018). Unfixed, frozen sections were dried for 2 h, loaded with 1 μg of MMrs overnight at 4° C., washed gently with phosphate-buffered saline and fixed in 2% paraformaldehyde for 10 min. After a further wash, endogenous peroxidase activity was blocked with 0.3% H2O2. Sections were then incubated serially with rabbit anti-phycoerythrin, horseradish peroxidase-conjugated swine anti-rabbit and 3,3′-diaminobenzidine tetrahydrochloride substrate (ThermoFisher). After a final wash, sections were counterstained with hematoxylin, dehydrated via sequential passages in 95-100% ethanol and xylene, mounted and analyzed using a Nikon Eclipse Ni microscope with NIS-Elements Analysis D software v4.40.

[4] = target: T1, HLA-A*02:01 (human); experiment: LC-MS/MS of peptides eluted from W6/32-purified pHLA Class I complexes of beta cells; the HLA-A2 restriction in this row is predicted
T1 construct: HLA-A2 multimers were produced as in Leisner et al. 2008; also called HLA-A2; A2
Method: The HLA class I peptidome of the ECN90 β-cell line was obtained from 5 biological replicates. A single biological replicate was available for primary human islets. […] Beads were subsequently loaded on GELoader Tips (20 μl; ThermoFisher) and washed before elution of pHLA complexes with 10% acetic acid.
Eluted peptides and the associated HLA Class I heavy chain and β2-microglobulin obtained from 20×10⁶ cells were concentrated to 20 μl by vacuum centrifugation, acidified with 10 μl of 1% aqueous formic acid (Normapur) and loaded on C18 stage tips (ThermoFisher) prewashed with 100% methanol and equilibrated with acetonitrile (ACN)/0.1% formic acid in LC-MS grade water (aq. formic acid) 2:98 (v/v). After loading, the C18 stage tips were washed with ACN/0.1% aq. formic acid 2:98 (v/v) and peptides separated from the more hydrophobic HLA Class I heavy chain and β2-microglobulin species by eluting them with ACN/0.1% aq. formic acid 1:1 (v/v). […] For MS analysis, 5 μl of this peptide solution were used.
Peptides were loaded and separated by nanoflow HPLC (RSLC Ultimate 3000, ThermoFisher Scientific) on a reversed phase nanocolumn (C18 Acclaim PepMap 100, 50 cm length, 75 μm i.d. ThermoFisher Scientific) coupled on-line to a nanoESI Q Exactive mass spectrometer (ThermoFisher Scientific).

[5] = target: T1, HLA-A*02:01; experiment: one of the 18 HLA-eluted peptides with verified HLA-A2 binding; loaded on HLA-A2 multimers

| Molecule | cognate naïve CD8^+ T-cell repertoire (validation of candidate epitope) ([1]; HLA-A2^+ healthy donors) | positive mice (number/tested) [2] | positive mice, percentage [2] | median percentage of IFN-γ^+CD8^+ cells [2] | positive range of percentage of IFN-γ^+CD8^+ cells [2] | other results |
| --- | --- | --- | --- | --- | --- | --- |
| CC(C)C[C@H](NC(=O)[C@H](CCC(=O)O)NC(=O)[C@@H](NC(=O)[C@H](CC(C)C)NC(=O)[C@H](Cc1ccccc1)NC(=O)[C@H](Cc1c[nH]cn1)NC(=O)[C@H](CC(N)=O)NC(=O)[C@@H](NC(=O)[C@@H](N)Cc1ccccc1)[C@@H](C)O)C(C)C)C(=O)O (H-FTNHFLVEL-OH; N-terminus and C-terminus assumed) | validated |  |  |  |  |  |
| CHGA344-352: HLA-eluted HLA-A2-restricted chromogranin A peptide (KMDQLAKEL) | validated |  |  |  |  |  |
| GYRDINEIDI [Pcsk2 109-118, peptide derived from murine Pcsk2, predicted to be restricted by K^d] |  | 6/8 | 50% | 1.8% | 1.9-4.3% |  |
| IAPP15-17/IAPP5-10: peptide splice product from fusion of IAPP15-17/IAPP5-10 (VALKLQVFL) |  |  |  |  |  | in-situ MMr staining of pancreas sections [3]: MMr^+ cells could be detected; donors with recognition ([1]; HLA-A2^+ healthy donors, screening): 1 of 6; median frequency in peripheral blood [1]: 1.6×10^−6 |
| IGRP 206-214: positive control peptide in NOD recall assay (VYLKTNVFL; UniProt Q9Z186 206-214, looked up, fragment) [reference compound] |  | 13/13 | 100% | 12.5% | 4.5-25.3% |  |
| ISL1276-284: HLA-eluted HLA-A2-restricted peptide of insulin gene enhancer protein ISL1 (GLQANPVEV) | validated |  |  |  |  | in-situ MMr staining of pancreas sections [3]: MMr^+ cells could be detected; median frequency in peripheral blood [1]: 7.2×10^−6 |
| KCNK16129-137: HLA-eluted HLA-A2-restricted KCNK16 peptide (ALLGIPLNV) | validated |  |  |  |  |  |
| KIF1A1347-1355: HLA-eluted HLA-A2-restricted Kinesin Family Member 1A peptide (VLDTSVAYV) | validated |  |  |  |  |  |
| LYDESCSSTL [Pcsk2 341-350, peptide derived from murine Pcsk2, predicted to be restricted by K^d] |  | 6/8 | 75% | 3.3% | 1.9-5.2% |  |
| RYLEHVQAVI [Pcsk2 501-510, peptide derived from murine Pcsk2, predicted to be restricted by K^d] |  | 5/8 | 63% | 2.7% | 2.1-8.0% |  |
| SCG5-009186-194: HLA-eluted peptide from SCG5-009 mRNA splice variant (FLSGAVNRL) | validated |  |  |  |  | frequency of MMr^+ CD8^+ T cells, in words [1]: particularly high and clustered |
| SCG5186-195: HLA-eluted HLA-A2-restricted SCG5 (7B2) peptide (YLQGQRLDNV) | validated |  |  |  |  |  |
| TYFLLPLLL [Ucn3 5-13, peptide derived from murine Ucn3, predicted to be restricted by K^d] |  | 8/12 | 67% | 2.3% | 2.1-8.6% |  |
| UCN31-9: HLA-eluted HLA-A2-restricted urocortin-3 peptide (MLMPVHFLL) | validated |  |  |  |  | frequency of MMr^+ CD8^+ T cells, in words [1]: particularly high and clustered |
| VFSCLNTAL [Ucn3 32-40, peptide derived from murine Ucn3, predicted to be restricted by K^d] |  | 8/12 | 67% | 1.9% | 1.9-3.3% |  |
| ZnT8186-184: positive control islet peptide (VAANIVLTV; UniProt Q8IWU4 186-194, looked up, fragment) [reference compound] |  |  |  |  |  | in-situ MMr staining of pancreas sections [3]: MMr^+ cells could be detected |
| B1 |  |  |  |  |  | binding result [4]: binds |
| B2 |  |  |  |  |  | binding result [5]: binds |
| B3 |  |  |  |  |  | binding result [5]: binds |

Reference: patent US20210023209A1, “ANTIGENIC PEPTIDES DERIVING FROM PCSK2 AND USES THEREOF FOR THE DIAGNOSIS AND TREATMENT OF TYPE 1 DIABETES” (INSERM (INSTITUT NATIONAL DE LA SANTÉ ET DE LA RECHERCHE …, priority 2018, published 2021)
